Assay: in vitro
Conditions: African green monkey

SMILES	CC50
Nc1nnc(-c2cnc3cc(Cl)ccc3c2O)s1 [ChloViD2022, 3-(5-amino-1,3,4-thiadiazol-2-yl)-7-chloroquinolin-4-ol]	> 100 µM
Nc1nnc(CC(O)(Cc2nnc(N)s2)c2nnc(N)s2)s1 [CoViTris2022, 1,2,3-tris(5-amino-1,3,4-thiadiazol-2-yl)propan-2-ol]	> 100 µM
CC(C)C(=O)OC[C@H]1O[C@@H](n2ccc(NO)nc2=O)[C@H](O)[C@@H]1O [Molnupiravir, molnupiravir, reference compound]	> 100 µM
Nc1nnc([C@H](O)[C@@H](O)c2nnc(N)s2)s1 [Taroxaz-26, (1R,2R)-1,2-bis(5-amino-1,3,4-thiadiazol-2-yl)ethane-1,2-diol]	> 100 µM

From article PMC9870775, “Potent Dual Polymerase/Exonuclease Inhibitory Activities of Antioxidant Aminothiadiazoles Against the COVID-19 Omicron Virus: A Promising In Silico/In Vitro Repositioning Research Study” (Molecular Biotechnology, 2023)
